Tested on: PANC-1 (pancreas)
Test: In vitro cell proliferation assay (SRB), PANC-1
Type: cell-based
Details: Homo sapiens, SRB method, 96 hours, read-out: Inhibition of cell growth (IC50, μM) PANC-1
Procedure: (§1) Cancer cell lines to determine the effect of 5, 6, or 7-substituted-3-(hetero)arylisoquinolinamine compounds were obtained from the following sources: Human MDA-MB-231 (breast), PC3 (prostate), HCT-15 (colon), HCT116 (colon), OVCAR-3 (ovary), Caki-1 (kidney), PANC-1 (pancreas), SNB-19 (glioblastoma) and SK-MEL-28 (melanoma) from the American Type Culture Collection (ATCC) (Manassas, Va.). PC3, OVCAR-3, SK-MEL-28 and SNB-19 were grown in RPMI1640 medium (Invitrogen, Carlsbad, Calif.) supplemented with 10% fetal bovine serum (“FBS”), 1 mM sodium pyruvate, 10 mM HEPES and 100 U/ml penicillin and 100 μg/ml streptomycin (“P/S”). MDA-MB-231, Caki-1, HCT-15 (colon) and PANC-1 cells were maintained in Dulbecco's modified Eagle's medium (“DMEM”, Invitrogen) supplemented with 10% FBS, P/S and 10 mM HEPES. HCT116 cells were maintained in DMEM supplemented with 10% FBS, P/S and 10 mM HEPES for in vitro cell proliferation assay and in RPMI1640 medium supplemented with 10% FBS, 1 mM sodium pyruvate, 10 mM HEPES and P/S for in vitro cell cycle analysis. All cells were incubated at 37° C. under humidified 5% CO2.
(§2) The growth inhibition of the 5, 6, or 7-substituted-3-(hetero)arylisoquinolinamine derivatives against a variety of human tumor cells was evaluated to study the relative importance of particular substituent groups on the compounds. The 5, 6, or 7-substituted-3-(hetero)arylisoquinolinamine derivatives, prepared as described above, were tested with DMSO as a control.
(§3) The growth inhibition assay of representative 5, 6, or 7-substituted-3-(hetero)arylisoquinolinamine derivatives against human tumor cell lines was performed using the Sulforhodamine B (“SRB”) method (Skehan et al., J. National Cancer Institute, 82: 1107-1112 (1990)). Briefly, exponentially growing tumor cells were seeded into a 96-well plate at a density of 2-3×10^3 cells/well and treated with 5, 6, or 7-substituted-3-(hetero)arylisoquinolinamine compounds the next day. Triplicate wells were used for each treatment. The cells were incubated with the various compounds for 96 hours at 37° C. in a humidified 5% CO2 atmosphere. After 96-hour incubation, cells were fixed with 10% trichloroacetic acid (“TCA”), incubated for 1 hour at 4° C., and washed 3 times with tap water. Subsequently, cells were stained with 0.4% sulforhodamine B in 1% acetic acid for 30 minutes, washed 4 times with 1% acetic acid, and air-dried again. After 5 minutes agitation in 10 mM Tris solution, the absorbance of each well was measured at 530 nm using Benchmark Plus Microplate reader (Bio-Rad Laboratories, Hercules, Calif.).
(§4) To translate the OD530 values into the number of live cells in each well, the OD530 values were compared to those on standard OD530-versus-cell number curves generated for each cell line. The percent survival was calculated using the formula: % Survival=live cell number [test]/live cell number [control]×100
(§5) The IC50 values were calculated by non-linear regression analysis.

IC50 [µM] | Structure (SMILES)
0.22 | Cc1ccc2c(N)nc(-c3ccc4c(c3)OCO4)cc2c1 [Compound 28, 3-(Benzo[d][1,3]dioxol-6-yl)-6-methylisoquinolin-1-amine]
2.27 | COc1cc2cc(-c3cccc(C)c3)nc(N)c2cc1OC [Compound 54, 6,7-Dimethoxy-3-m-tolylisoquinolin-1-amine]
0.11 | COc1cccc(-c2cc3cc(N(C)C)ccc3c(N)n2)c1 [Compound 21, 3-(3-Methoxyphenyl)-N^6,N^6-dimethyl-isoquinoline-1,6-diamine]
0.18 | COc1ccc(-c2cc3ccc(C)cc3c(N)n2)c(C)c1 [Compound 42, 3-(4-Methoxy-2-methylphenyl)-7-methylisoquinolin-1-amine]

Tested on: Caki-1 (kidney)
Test: In vitro cell proliferation assay (SRB), Caki-1
Type: cell-based
Details: Homo sapiens, SRB method, 96 hours, read-out: Inhibition of cell growth (IC50, μM) Caki-1
Procedure: as §1, §2, §3, §4, §5

Structure (SMILES) | IC50 [µM]
Cc1ccc2c(N)nc(-c3ccc4c(c3)OCO4)cc2c1 [Compound 28, 3-(Benzo[d][1,3]dioxol-6-yl)-6-methylisoquinolin-1-amine] | 0.11
COc1cc2cc(-c3cccc(C)c3)nc(N)c2cc1OC [Compound 54, 6,7-Dimethoxy-3-m-tolylisoquinolin-1-amine] | 1.78
COc1cccc(-c2cc3cc(N(C)C)ccc3c(N)n2)c1 [Compound 21, 3-(3-Methoxyphenyl)-N^6,N^6-dimethyl-isoquinoline-1,6-diamine] | 0.068
COc1ccc(-c2cc3ccc(C)cc3c(N)n2)c(C)c1 [Compound 42, 3-(4-Methoxy-2-methylphenyl)-7-methylisoquinolin-1-amine] | 0.065

Tested on: MDA-MB-231 (breast)
Test: In vitro cell proliferation assay (SRB), MDA-MB-231
Type: cell-based
Details: Homo sapiens, SRB method, 96 hours, read-out: Inhibition of cell growth (IC50, μM) MDA-MB-231
Procedure: as §1, §2, §3, §4, §5

IC50 [µM] | Structure (SMILES)
0.13 | Cc1ccc2c(N)nc(-c3ccc4c(c3)OCO4)cc2c1 [Compound 28, 3-(Benzo[d][1,3]dioxol-6-yl)-6-methylisoquinolin-1-amine]
0.79 | COc1cc2cc(-c3cccc(C)c3)nc(N)c2cc1OC [Compound 54, 6,7-Dimethoxy-3-m-tolylisoquinolin-1-amine]
0.059 | COc1cccc(-c2cc3cc(N(C)C)ccc3c(N)n2)c1 [Compound 21, 3-(3-Methoxyphenyl)-N^6,N^6-dimethyl-isoquinoline-1,6-diamine]
0.079 | COc1ccc(-c2cc3ccc(C)cc3c(N)n2)c(C)c1 [Compound 42, 3-(4-Methoxy-2-methylphenyl)-7-methylisoquinolin-1-amine]

Tested on: HCT116 (colon)
Test: In vitro cell proliferation assay (SRB), HCT116
Type: cell-based
Details: Homo sapiens, HCT-116; SRB method, 96 hours; Table 3; read-out: Inhibition of cell growth (IC50, μM) HCT116
Procedure: as §1, §2, §3, §4, §5

IC50 [µM] | Structure (SMILES)
0.16 | Cc1ccc2c(N)nc(-c3ccc4c(c3)OCO4)cc2c1 [Compound 28, 3-(Benzo[d][1,3]dioxol-6-yl)-6-methylisoquinolin-1-amine]
2.32 | COc1cc2cc(-c3cccc(C)c3)nc(N)c2cc1OC [Compound 54, 6,7-Dimethoxy-3-m-tolylisoquinolin-1-amine]
0.064 | COc1cccc(-c2cc3cc(N(C)C)ccc3c(N)n2)c1 [Compound 21, 3-(3-Methoxyphenyl)-N^6,N^6-dimethyl-isoquinoline-1,6-diamine]
0.12 | COc1ccc(-c2cc3ccc(C)cc3c(N)n2)c(C)c1 [Compound 42, 3-(4-Methoxy-2-methylphenyl)-7-methylisoquinolin-1-amine]

Tested on: PC3 (prostate)
Test: In vitro cell proliferation assay (SRB), PC3
Type: cell-based
Details: Homo sapiens; SRB method, 96 hours; read-out: Inhibition of cell growth (IC50, μM) PC3
Procedure: as §1, §2, §3, §4, §5

IC50 [µM] | Structure (SMILES)
0.19 | Cc1ccc2c(N)nc(-c3ccc4c(c3)OCO4)cc2c1 [Compound 28, 3-(Benzo[d][1,3]dioxol-6-yl)-6-methylisoquinolin-1-amine]
2.5 | COc1cc2cc(-c3cccc(C)c3)nc(N)c2cc1OC [Compound 54, 6,7-Dimethoxy-3-m-tolylisoquinolin-1-amine]
0.19 | COc1cccc(-c2cc3cc(N(C)C)ccc3c(N)n2)c1 [Compound 21, 3-(3-Methoxyphenyl)-N^6,N^6-dimethyl-isoquinoline-1,6-diamine]
0.2 | COc1ccc(-c2cc3ccc(C)cc3c(N)n2)c(C)c1 [Compound 42, 3-(4-Methoxy-2-methylphenyl)-7-methylisoquinolin-1-amine]

Tested on: human cancer cell lines
Test: Growth inhibition against the panel of human tumor cell lines (SRB), overall statements
Type: cell-based
Details: Table 3 cell lines
Procedure: as §1, §2, §3, §4, §5
Using QSAR and medicinal chemistry techniques, a large number of compounds, including the compounds shown in Table 1-2 above, were synthesized. The synthesized compounds were screened against at least four cancer cell lines, PANC-1, MDA-MB-231, HCT116 and Caki-1, at approximately 1 μM concentration. Compounds showing activity in at least one of these cell lines were selected for further screening. From these compounds, thirty compounds were selected for further evaluation as broad-spectrum anti-proliferative agents as shown in the following Table 3.

Structure (SMILES) | activity in growth inhibition of human cancer cell compared to Compound 23
Cc1ccc2c(N)nc(-c3ccc4c(c3)OCO4)cc2c1 [Compound 28, 3-(Benzo[d][1,3]dioxol-6-yl)-6-methylisoquinolin-1-amine] | equal or better activity
COc1cccc(-c2cc3cc(N(C)C)ccc3c(N)n2)c1 [Compound 21, 3-(3-Methoxyphenyl)-N^6,N^6-dimethyl-isoquinoline-1,6-diamine] | equal or better activity
COc1ccc(-c2cc3ccc(C)cc3c(N)n2)c(C)c1 [Compound 42, 3-(4-Methoxy-2-methylphenyl)-7-methylisoquinolin-1-amine] | equal or better activity

Tested on: SK-MEL-28 (melanoma)
Test: In vitro cell proliferation assay (SRB), SK-MEL-28
Type: cell-based
Details: Homo sapiens, SRB method, 96 hours, read-out: Inhibition of cell growth (IC50, μM) SK-MEL-28
Procedure: as §1, §2, §3, §4, §5

IC50 [µM] | Structure (SMILES)
0.22 | Cc1ccc2c(N)nc(-c3ccc4c(c3)OCO4)cc2c1 [Compound 28, 3-(Benzo[d][1,3]dioxol-6-yl)-6-methylisoquinolin-1-amine]
1.12 | COc1cc2cc(-c3cccc(C)c3)nc(N)c2cc1OC [Compound 54, 6,7-Dimethoxy-3-m-tolylisoquinolin-1-amine]
0.11 | COc1cccc(-c2cc3cc(N(C)C)ccc3c(N)n2)c1 [Compound 21, 3-(3-Methoxyphenyl)-N^6,N^6-dimethyl-isoquinoline-1,6-diamine]
0.21 | COc1ccc(-c2cc3ccc(C)cc3c(N)n2)c(C)c1 [Compound 42, 3-(4-Methoxy-2-methylphenyl)-7-methylisoquinolin-1-amine]

Tested on: OVCAR-3 (ovary)
Test: In vitro cell proliferation assay (SRB), OVCAR3
Type: cell-based
Details: Homo sapiens, SRB method, 96 hours, read-out: Inhibition of cell growth (IC50, μM) OVCAR3
Procedure: as §1, §2, §3, §4, §5

IC50 [µM] | Structure (SMILES)
0.16 | Cc1ccc2c(N)nc(-c3ccc4c(c3)OCO4)cc2c1 [Compound 28, 3-(Benzo[d][1,3]dioxol-6-yl)-6-methylisoquinolin-1-amine]
0.58 | COc1cc2cc(-c3cccc(C)c3)nc(N)c2cc1OC [Compound 54, 6,7-Dimethoxy-3-m-tolylisoquinolin-1-amine]
0.071 | COc1cccc(-c2cc3cc(N(C)C)ccc3c(N)n2)c1 [Compound 21, 3-(3-Methoxyphenyl)-N^6,N^6-dimethyl-isoquinoline-1,6-diamine]
0.13 | COc1ccc(-c2cc3ccc(C)cc3c(N)n2)c(C)c1 [Compound 42, 3-(4-Methoxy-2-methylphenyl)-7-methylisoquinolin-1-amine]

Tested on: SNB-19 (glioblastoma)
Test: In vitro cell proliferation assay (SRB), SNB19
Type: cell-based
Details: Homo sapiens, SRB method, 96 hours, read-out: Inhibition of cell growth (IC50, μM) SNB19
Procedure: as §1, §2, §3, §4, §5

IC50 [µM] | Structure (SMILES)
0.23 | Cc1ccc2c(N)nc(-c3ccc4c(c3)OCO4)cc2c1 [Compound 28, 3-(Benzo[d][1,3]dioxol-6-yl)-6-methylisoquinolin-1-amine]
1.56 | COc1cc2cc(-c3cccc(C)c3)nc(N)c2cc1OC [Compound 54, 6,7-Dimethoxy-3-m-tolylisoquinolin-1-amine]
0.094 | COc1cccc(-c2cc3cc(N(C)C)ccc3c(N)n2)c1 [Compound 21, 3-(3-Methoxyphenyl)-N^6,N^6-dimethyl-isoquinoline-1,6-diamine]
0.2 | COc1ccc(-c2cc3ccc(C)cc3c(N)n2)c(C)c1 [Compound 42, 3-(4-Methoxy-2-methylphenyl)-7-methylisoquinolin-1-amine]
